What was measured:
SLC6A4 = assay: Intestinal qRT-PCR, colonic SLC6A4 expression relative to GAPDH; format: in vivo, mouse; settings: Sp-colonized mice, PCPA intrarectally
colon 5-HT = assay: Colon 5-HT by ELISA, normalized to total protein; format: in vivo, mouse; settings: for effects of a single rectal injection on raising colon 5-HT levels: time course
Excerpt: (§1) Blood samples were collected by cardiac puncture and spun through SST vacutainers (Becton Dickinson) for serum separation or PST lithium hepararin vacutainers (Becton Dickinson, Franklin Lakes, NJ) for plasma separation. The entire length of the colon or 1 cm regions of the distal, medial and proximal colon of the small intestine were washed in PBS, flushed with PBS to remove luminal contents, and sonicated on ice in 10 s intervals at 20 mV in ELISA standard buffer supplemented with ascorbic acid (Eagle Biosciences, Nashua, NH). Serotonin levels were detected in sera and supernatant of tissue homogenates by ELISA according to the manufacturer's instructions (Eagle Biosciences, Nashua, NH). Readings from tissue samples were normalized to total protein content as detected by BCA assay (Thermo Pierce). Data compiled across multiple experiments are expressed as 5-HT concentrations normalized to SPF controls within each experiment.

[1] = test system: intrinsic afferent primary neurons (IPANs) of the myenteric plexus; assay: c-fos and calretinin (Calb2) colocalization; format: in vivo, mouse; settings: Sp-colonized mice treated with PCPA
Protocol: (§2) Mouse colon was cut into distal, medial and proximal sections, and 1 cm regions of the distal, medial and proximal small intestine were fixed in Bouin's solution (Sigma Aldrich) overnight at 4° C., washed and stored in 70% ethanol. Intestinal samples were then paraffin-embedded and cut into 10 um longitudinal sections by Pacific Pathology, Inc (San Diego, CA). Sections were stained using standard procedures. Briefly, slides were deparaffinized, and antigen retrieval was conducted for 1 hr in a 95° C. water bath in 10 mM sodium citrate, pH 6.0 or DAKO solution (Agilent Technologies). […] For 5-HT and CgA staining, numbers of positively-stained puncta were scored blindly, normalized to total area of intestinal mucosa using ImageJ software (NIH) (Schneider et al., Nature Methods 9:671-675 (2012)), and then averaged across biological replicates. For calretinin, cfos and 5HT4 staining, fluorescence intensity for individual stains was quantified and normalized to total area of intestinal submucosa and muscularis externa using ImageJ software. Colocalization was measured and analyzed using the Coloc2 plug-in for Fiji software described in Schindelin et al., Nature Methods 9:676-682 (2012). […]

Tail bleed assay = format: in vivo, mouse; settings: Sp-colonized mice, intrarectal PCPA
Protocol: Mice were anesthetized with isoflurane and the distal 6 mm portion of the tail was transected using a fresh razor blade. The tail was placed immediately at a 2 cm depth into a 50 mL conical tube containing saline pre-warmed to 37° C. (Liu et al., World J. Exp. Med. 2:30-36 (2012)). Time to bleeding cessation was recorded, with continued recording if re-bleeding occurred within 15 seconds of initial cessation and a maximum total bleed time of 5 minutes. Mice were sacrificed by CO2 immediately after the assay.

TPH1 = assay: Intestinal qRT-PCR, colonic TPH1 expression relative to GAPDH; format: in vivo, mouse
Protocol: The entire length of the mouse colon, or 1 cm regions of the distal, medial and proximal of the mouse small intestine were washed in PBS, flushed with PBS to remove luminal contents, and homogenized in ice-cold Trizol for RNA isolation using the RNeasy Mini Kit with on-column genomic DNA-digest (Qiagen) and cDNA synthesis using iScript (Biorad). qRT-PCR was performed on an ABI 7900 thermocycler using SYBR green master mix with Rox passive reference dye (Roche) and validated primer sets obtained from Primerbank (Harvard).

serum 5-HT = assay: Serum 5-HT by ELISA; format: in vivo, mouse
Excerpt: as §1

[2] = test system: colonic enterochromaffin cells (ECs); assay: Immunofluorescence staining of 5-HT and CgA in colon; format: in vivo, mouse
Protocol: as §2

platelets = assay: Platelet aggregation assay, collagen stimulation, flow cytometry; format: in vivo, mouse; settings: Sp-colonized mice, colonic PCPA injection
Protocol: Blood samples were collected by cardiac puncture, diluted with a 2× volume of HEPES medium (132 mM NaCl, 6 mM KCl, 1 mM MgSO4, 1.2 mM KH2PO4, 20 mM HEPES, 5 mM glucose; pH 7.4) and centrifuged through PST lithium hepararin vacutainers (Becton Dickinson). Expression of platelet activation markers was measured by flow cytometry (Nieswandt et al., Methods Mol. Biol. 272:255-268 (2004); Ziu et al., J. Mol. Cell. Cardiol. 52:1112-1121 (2012)). Briefly, PRP samples were supplemented with 1 mM CaCl2, and 1×10^6 platelets were stimulated with 10 μg/ml type-1 HORM collagen (Chronolog), and stained with anti-JON/APE, anti-P-selectin-FITC (Emfret Analytics), anti-CD63-PE (Biologend), anti-CD41-FITC (BD Biosciences) and anti-CD9-APC (Abcam) for 15 min at room temperature. Samples were then washed in PBS, fixed with 0.5% formaldehyde and analyzed using a FACS Calibur flow cytometer (BD Biosciences). Platelet aggregation assays were conducted according to methods described in (De Cuyper et al., Blood 121:070-e80 (2013)). Briefly, 4×10^6 platelets were stained separately with CD9-APC or CD9-PE (Abcam) for 15 minutes at room temperature and then washed with HEPES medium. Labeled platelets were mixed 1:1 and incubated for 15 minutes at 37° C., with shaking at 600 rpm. Platelets were then stimulated with 10 μg/ml type-1 collagen for 2 min and fixed in 0.5% formaldehyde for flow cytometry. […]

RIN14B cells = assay: RIN14B in vitro culture, 5-HT release; settings: for 5-HT in RIN14B chromaffin cell cultures: α-tocopherol 8 uM, butyrate 100 uM, cholate 75 uM, deoxycholate 25 uM, p-aminobenzoate 1 uM, propionate 100 uM, tyramine 100 uM
TPH1 in RIN14B cells = assay: RIN14B in vitro culture, TPH1 expression by qRT-PCR; settings: colonic luminal filtrate, or 15 uM ionomycin; relative to vehicle-treated controls
[3] = GF mice colonized with hSp, PCPA treatment
[4] = Sp-colonized GF mice, PCPA intrarectally twice daily for 3 days
[5] = GF mice, oral supplementation in water 1.5 mg/ml, 2 weeks
[6] = GF mice, intrarectal injection: deoxycholate 125 mg/kg, α-tocopherol 2.25 mg/kg, PABA 1.37 μg/kg, tyramine 0.137 mg/kg, oleanolate 0.46 mg/kg, vs vehicle

With `N[C@@H](Cc1ccc(Cl)cc1)C(=O)O` (racemic) [PCPA, parachlorophenylalanine] as the compound, how does the “colonic SLC6A4 expression” value (SLC6A4) read?
The value was “decrease in SLC6A4”.

What about the “colon 5-HT” value (colon 5-HT; [3]) of the same compound?
Its value is “blocking increases”.

And the “colon 5-HT levels” value (colon 5-HT; [4])?
The value was “sufficiently blocks the ability of Sp to elevate”.

What about the IPAN activation [1] of the same compound?
The IPAN activation was “decreases IPAN activation”.

And the “Sp effect on bleeding time” value (Tail bleed assay)?
The value was “attenuated”.

And the “colonic TPH1 expression” value (TPH1; Sp-colonized mice, PCPA intrarectally)?
The value was “compensatory increase in colonic TPH1”.

And the “serum 5-HT” value (serum 5-HT; [3])?
Its value is “blocking increases”.

What about the “serum 5-HT levels” value (serum 5-HT; [4]) of the same compound?
The value was “sufficiently blocks the ability of Sp to elevate”.

And the “5-HT staining in colonic ECs” value [2, 3]?
The value was “blocking increases”.

What about the “5-HT staining in ECs” value [2, 4] of the same compound?
The value was “sufficiently blocks”.

What about the “Sp effect on platelet aggregation” value (platelets) of the same compound?
Its value is “attenuated”.

With `N[C@@H](Cc1c[nH]c2ccc(O)cc12)C(=O)O` [5-HTP, 5-hydroxytryptophan] as the compound, how does the “colon 5-HT” value (colon 5-HT; [5]) read?
The value was “sufficiently ameliorates deficits”.

What about the “serum 5-HT” value (serum 5-HT; [5]) of the same compound?
The value was “sufficiently ameliorates deficits”.

Which results are given for `Nc1ccc(C(=O)O)cc1` [PABA, p-aminobenzoate]?
colon 5-HT (colon 5-HT; [6]): Increases; serum 5-HT (serum 5-HT; [6]): Increases; 5-HT in RIN14B chromaffin cell cultures (RIN14B cells): elevate 5-HT

Which results are given for `N[C@@H](Cc1c[nH]c2ccccc12)C(=O)O` [Trp, tryptophan]?
colon 5-HT (colon 5-HT; [5]): no restorative effect; serum 5-HT (serum 5-HT; [5]): no restorative effect

Which “5-HT in RIN14B chromaffin cell cultures” value (RIN14B cells) does the source give for `C[C@H](CCC(=O)O)[C@H]1CC[C@H]2[C@@H]3[C@H](O)C[C@@H]4C[C@H](O)CC[C@]4(C)[C@H]3C[C@H](O)[C@]12C` [cholate] here?
The value was “elevate 5-HT”.

For `C[C@H](CCC(=O)O)C[C@H](C)C[C@H](C)C(=O)/C=C(\O)[C@H](C)C[C@H](C)C/C=C/[C@@H](C)[C@@H](O)[C@@H](C)[C@@H](O)C[C@@H]1CC[C@@](C)([C@H]2CC[C@@](C)([C@@H](C)O)O2)O1` [ionomycin, reference compound], which “5-HT released from RIN14B cells” value (RIN14B cells; colonic luminal filtrate 1 hr at 37° C., or 15 uM ionomycin, relative to vehicle-treated controls) is on record?
The value was “stimulates 5-HT release”.

And the “TPH1 expression in RIN14B cells” value (TPH1 in RIN14B cells)?
The value was “no effect on TPH1 expression”.

What does the source list for `CC1(C)CC[C@]2(C(=O)O)CC[C@]3(C)C(=CC[C@@H]4[C@@]5(C)CC[C@H](O)C(C)(C)[C@@H]5CC[C@]43C)[C@@H]2C1` [oleanolate]?
colon 5-HT (colon 5-HT; [6]): no statistically significant effect; serum 5-HT (serum 5-HT; [6]): no statistically significant effect

Which “5-HT in RIN14B chromaffin cell cultures” value (RIN14B cells) does the source give for `CCC(=O)O` [propionate] here?
Its value is “elevate 5-HT”.

Which results are given for `NCCc1ccc(O)cc1` [tyramine]?
colon 5-HT (colon 5-HT; [6]): Increases; serum 5-HT (serum 5-HT; [6]): Increases; 5-HT in RIN14B chromaffin cell cultures (RIN14B cells): elevate 5-HT

Which results are given for `Cc1c(C)c2c(c(C)c1O)CC[C@@](C)(CCC[C@H](C)CCC[C@H](C)CCCC(C)C)O2` [α-tocopherol]?
colon 5-HT (colon 5-HT; [6]): Increases; effects of a single rectal injection on raising colon 5-HT levels (colon 5-HT; GF mice): weak and transient; serum 5-HT (serum 5-HT; [6]): Increases; 5-HT in RIN14B chromaffin cell cultures (RIN14B cells): elevate 5-HT

With Bacteroides fragilis as the compound, how does the “serum 5-HT levels” value (serum 5-HT; GF mice colonized, monoassociated or conventionalized, compared with GF and SPF controls) read?
Its value is “deficits in serum 5-HT that are comparable to those seen in GF mice”.

Which “colon 5-HT” value (colon 5-HT; [6]) does the source give for deoxycholate here?
Its value is “sufficiently increases”.

What about the “effects of a single rectal injection on raising colon 5-HT levels” value (colon 5-HT; GF mice) of the same compound?
Its value is “weak and transient”.

What about the “colonic TPH1 expression” value (TPH1; GF mice, intrarectal deoxycholate 125 mg/kg, 1 hr post injection) of the same compound?
Its value is “elevations in colonic TPH1 expression”.

What about the “serum 5-HT” value (serum 5-HT; [6]) of the same compound?
The value was “sufficiently increases”.

What about the “5-HT in RIN14B chromaffin cell cultures” value (RIN14B cells) of the same compound?
Its value is “elevate 5-HT”.
